Experimental findings from patent publication US5153218A, “N,N',N'-trisubstituted-bis-amino-3-methylene-2,4(3H,5H)-furandione inhibitors of acyl-CoA:cholesterol-acyl transferase” (American Home Products Corporation, priority 1991, dated 1992) are described below.

The test system of experiment [1] is 14C-Cholesterol Absorption. The note with it: po.
Experimental: Representative compounds were further tested in vivo to establish the percent inhibition of cholesterol absorption. In this study, normal rats were dosed (oral gavage) with ^14 C-cholesterol plus the test compound. Blood samples taken at six hours and/or intermittently up to twenty-four hours were analyzed and the percent inhibition of cholesterol absorption was calculated.
Experiment [2] has as its system acyl-coenzyme A: cholesterol acyltransferase. As to the kind of experiment: inhibition of acyl-coenzyme A: cholesterol acyltransferase in vitro (intracellular cholesterol esterification, procedure of Ross et al.). It is filed as cell-based. The note with it: for percent inhibition at a single concentration: unit assumed. The text has this: The ability of the compounds of this invention to inhibit acyl-coenzyme A: cholesterol acyltransferase was established in vitro by initially showing that they inhibited intracellular cholesterol esterification by subjecting them to the standard experimental test procedure of Ross et al., J. Biol. Chem. 259 815 (1984).

The test system of experiment [3] is Plasma Cholesterol. In words: in vivo decrease of plasma cholesterol in cholesterol-cholic acid fed rats. The note with it: oral gavage, four days. The method, then:
In addition, representative compounds were studied in vivo in cholesterol-cholic acid fed rats to determine the percent decrease of cholesterol in their plasma. This study involves rats which are, prior to testing, trained for one week to eat over a four hour time period each day. Upon initiation of the experiment, the rats diet is supplemented with 1.0 percent cholesterol and 0.25 percent cholic acid. The rats are dosed with the test compound by oral gavage just prior to and just following the four hour feeding period. This is repeated for four days. On the fifth day, the rats are sacrificed and the total plasma cholesterol content is determined. The percent decrease in elevated plasma cholesterol levels is calculated in comparison with normal-fed controls.

Each structure is given as a SMILES string. Where two headings read alike, the source gives them in different places.

As for `CCCCCCCN(Cc1ccc(C(C)(C)C)cc1)C(Nc1ccc(F)cc1)=C1C(=O)COC1=O` [Example 1, 3-[[[[4-(1,1-Dimethylethyl)phenyl]methyl]heptylamino][(4-fluorophenyl)amino]methylene]-2,4(3H,5H)-furandione], in experiment [1] (200 mg/kg), the “% Inhibition of Absorption” value was -74%. Moreover, in experiment [2], the IC50 (in general, the midpoint of a concentration-inhibition curve) came to 6 µM. In experiment [2] (Conc. 50 mM (so in the source)), this compound yielded a percent inhibition at a single concentration of 96%.
In experiment [2] (Conc. 50 mM (so in the source)), `CCCCCCN(CCCCCC)C(Nc1ccc(F)cc1)=C1C(=O)COC1=O` [Example 2, 3-[(Dihexylamino)[(4-fluorophenyl)amino]methylene]-2,4(3H,5H)furandione] registered a percent inhibition at a single concentration of 57%.
For the compound `CCCCCCCN(Cc1ccc(C(C)(C)C)cc1)C(Nc1ccc(OC)cc1OC)=C1C(=O)COC1=O` [Example 3], the IC50 in experiment [2] turned out to be 4 µM. Moreover, the percent inhibition at a single concentration in experiment [2] (Conc. 50 mM (so in the source)) came out at 90%.
For `CCCCCCCC/C=C\CCCCCCCCNC(Nc1ccc(OC)cc1OC)=C1C(=O)COC1=O` [Example 4, 3-[[(2,4-Dimethoxyphenyl)amino]((Z)-9-octadecenylamino)methylene]-2,4(3H,5H)-furandione], the “% Inhibition of Absorption” value in experiment [1] (200 mg/kg) was -14%. The compound further displayed a percent inhibition at a single concentration in experiment [2] (Conc. 50 mM (so in the source)) of 63%.
Take `CCCCCCCN(Cc1ccc(CC(C)(C)C)cc1)C(Nc1c(OC)cc(OC)cc1OC)=C1C(=O)COC1=O` [Example 5, 3-[[[4-(2,2-Dimethylpropyl)phenylmethyl]heptylamino][(2,4,6-trimethoxyphenyl)amino]methylene]-2,4(3H,5H)-furandione]: in experiment [2], the IC50 was 11 µM. Further, the percent inhibition at a single concentration in experiment [2] (Conc. 25 mM (so in the source)) was 67%.
For `CCCCCCCN(Cc1ccc(OCCC(C)C)cc1)C(Nc1ccc(OC)cc1OC)=C1C(=O)COC1=O` [Example 6, 3-[[(2,4-Dimethoxyphenyl)amino][(heptyl)[[4-(3-methylbutoxy)phenyl]methyl]amino]methylene]-2,4(3H,5H)-furandione] the same measures were 0.4 µM and 99%.
Regarding `CCCCCC(C)N(Cc1ccc(CC(C)(C)C)cc1)C(Nc1ccc(OC)cc1OC)=C1C(=O)COC1=O` (centres unmarked) [Example 7, 3-[[(2,4-Dimethoxyphenyl]amino][[[4-(2,2-dimethylpropyl)phenyl]methyl](1-methylhexyl)-amino]methylene]2,4(3H,5H)-furandione], the “% Decrease in Plasma Cholesterol” value in experiment [3] (40 mg/kg) is recorded as -26%. Also, in experiment [1] (20 mg/kg), the “% Inhibition of Absorption” value was -62%. This compound returned an IC50 in experiment [2] of 0.92 µM. Moreover, in experiment [2] (Conc. 25 mM (so in the source)), the percent inhibition at a single concentration amounted to 98%.
In the case of `CCCCCC(C)N(Cc1ccc(CC(C)(C)C)cc1)C(Nc1cc(C(C)(C)C)c(O)c(C(C)(C)C)c1)=C1C(=O)COC1=O` (centres unmarked) [Example 8], in experiment [3] (20 mg/kg), the “% Decrease in Plasma Cholesterol” value was -71%. Moreover, the “% Inhibition of Absorption” value in experiment [1] (20 mg/kg) is on record as -72%. In addition, the IC50 in experiment [2] worked out at 0.19 µM. This compound registered a percent inhibition at a single concentration in experiment [2] (Conc. 25 mM (so in the source)) of 99%.
The compound `CCCCCCN(CCCCCC)C(Nc1ccc(OC)cc1OC)=C1C(=O)COC1=O` [Example 9, 3-[(Dihexylamino)[(2,4-dimethoxyphenyl)amino]methylene]-2,4(3H,5H)-furandione] yielded an IC50 in experiment [2] of 25 µM. The compound also came in with a percent inhibition at a single concentration in experiment [2] (Conc. 50 mM (so in the source)) of 87%.
For `CCCCCCCC/C=C\CCCCCCCCNC(Nc1ccc(F)cc1)=C1C(=O)COC1=O` [Example 10, 3-[[(4-Fluorophenyl)amino]((Z)-9-octadecenylamino)methylene]2,4(3H,5H)-furandione] the same measures were over 30 µM and 61%.
For `COc1ccc(NC(=C2C(=O)COC2=O)N(CCc2ccccc2)Cc2ccccc2)c(OC)c1` [Example 11, 3-[[(2,4-Dimethoxyphenyl)amino][(2-phenylethyl)(phenylmethyl)amino]methylene]-2,4(3H,5H)-furandione] the same measures were over 30 µM and 72%.
For `CCCCCCN(CCCCCC)C(Nc1ccc(-c2ccccc2)cc1)=C1C(=O)COC1=O` [Example 12, 3-[([1,1'-Biphenyl]-4-ylamino)(dihexylamino)methylene]-2,4(3H,5H)-furandione] the same measures were 27 µM and 90%.
Regarding `CCCCCCCN(Cc1ccc(C(C)(C)C)cc1)C(Nc1ccc(-c2ccccc2)cc1)=C1C(=O)COC1=O` [Example 13, 3-[([1,1'-Biphenyl]-4-ylamino)[[[4-(1,1-dimethylethyl)phenyl]methyl]heptylamino]methylene]-2,4(3H,5H)-furandione], in experiment [2], the IC50 is 12 µM. The percent inhibition at a single concentration in experiment [2] (Conc. 50 mM (so in the source)) stood at 91%.
Take `CCCCCCCN(Cc1ccc(C(C)(C)C)cc1)C(Nc1ccc(F)cc1F)=C1C(=O)COC1=O` [Example 14, 3-[[(2,4-Difluorophenyl)amino][[[4-(1,1-dimethylethyl)phenyl]methyl]heptylamino]methylene]-2,4(3H,5H)-furandione]: in experiment [2] (Conc. 25 mM (so in the source)), the percent inhibition at a single concentration amounted to 39%.
The same measure, in the same setting: then `CCCCCCCN(Cc1ccc(C(C)(C)C)cc1)C(Nc1c(C)cc(C)cc1C)=C1C(=O)COC1=O` [Example 15, 3-[[[[4-(1,1-Dimethylethyl)phenyl]methyl]heptylamino][(2,4,6-trimethylphenyl)amino]methylene]-2,4(3H,5H)-furandione], with 73%; and `CCCCCCCN(Cc1ccc(CCCCCC)cc1)C(Nc1ccc(C(F)(F)F)cc1)=C1C(=O)COC1=O` [Example 16, 3-[[Heptyl[(4-hexylphenyl)methyl]amino][[4-(trifluoromethyl)phenyl]amino]methylene]-2,4(3H,5H)-furandione], with 56%.
In the case of `CCCCCCCN(Cc1ccc(C(C)(C)C)cc1)C(Nc1ccc(Cl)cc1)=C1C(=O)COC1=O` [Example 17, 3-[[(4-Chlorophenyl)amino][[[4-(1,1-dimethylethyl)phenyl]methyl]heptylamino]methylene]-2,4(3H,5H)-furandione], in experiment [2], the IC50 came to 24 µM. Moreover, in experiment [2] (Conc. 25 mM (so in the source)), the percent inhibition at a single concentration came to 84%.
Compound `CCCCCCCC/C=C\CCCCCCCCN(Cc1ccc(C(C)(C)C)cc1)C(Nc1ccc(F)cc1)=C1C(=O)COC1=O` [Example 18, 3-[[[[4-(1,1-Dimethylethyl)phenyl]methyl]((Z)-9-octadecenyl)amino][(4-fluorophenyl)amino]methylene]-2,4(3H,5H)-furandione] had a percent inhibition at a single concentration in experiment [2] (Conc. 25 mM (so in the source)) of 44%.
For the compound `CCCCCCCN(Cc1ccc(C(C)(C)C)cc1)C(Nc1c(C)cc(N(C)C)cc1C)=C1C(=O)COC1=O` [Example 19], it took 9.5 µM to reach half-maximal inhibition in experiment [2] (IC50). The compound further yielded a percent inhibition at a single concentration in experiment [2] (Conc. 25 mM (so in the source)) of 77%.
For `CCCCCC(C)N(Cc1ccc(C(C)(C)C)cc1)C(Nc1ccc(OC)cc1OC)=C1C(=O)COC1=O` (centres unmarked) [Example 20, 3-[[(2,4-Dimethoxyphenyl)amino][[[4-(1,1-dimethylethyl)phenyl]methyl](1-methylhexyl)amino]methylene]-2,4(3H,5H)-furandione] the same measures were 1.5 µM and 94%.
`CCCCCC(C)N(Cc1ccc(OCCC(C)C)cc1)C(Nc1ccc(OC)cc1OC)=C1C(=O)COC1=O` (centres unmarked) [Example 21, 3-[[(2,4-Dimethoxyphenyl)amino][[[4-(3-methylbutoxy)phenyl]methyl](1-methylhexyl)amino]methylene]-2,4(3H,5H)-furandione]: the “% Decrease in Plasma Cholesterol” value in experiment [3] (20 mg/kg) is recorded as -23%. In addition, the midpoint of inhibition in experiment [2], the IC50, lay at 4.9 µM. Further, the percent inhibition at a single concentration in experiment [2] (Conc. 25 mM (so in the source)) is 97%.
The like results for `CCCCCCC(C)N(Cc1ccc(CC(C)(C)C)cc1)C(Nc1cc(C(C)(C)C)c(O)c(C(C)(C)C)c1)=C1C(=O)COC1=O` (centres unmarked) [Example 22, 3-[[[3,5-Bis(1,1-dimethylethyl)-4-hydroxyphenyl]amino][[[4-(2,2-dimethylpropyl)phenyl]methyl](1-methylheptyl)amino]methylene]-2,4(3H,5H)-furandione] were, in that order, -80%, 0.07 µM and 97%.
`CCCCCCN(Cc1ccc(CC(C)C)cc1)C(Nc1cc(C(C)(C)C)c(O)c(C(C)(C)C)c1)=C1C(=O)COC1=O` [Example 23] yielded a percent inhibition at a single concentration in experiment [2] (Conc. 25 mM (so in the source)) of 88%.
